Laboratory results published in patent US9624211B2, “Anti-cancer compounds” (Board of Regents, The University of Texas System, priority 2013, dated 2017).
“Also recorded” adds a separate entry of the source.

Tests used:
[1] = tested on: PC3 cells; experiment: Cell cycle by PI staining and flow cytometry; type: cell-based, human; settings: PC3 cells treated for 2 days
Procedure: FIGS. 12A-D. Skp2 inhibitor triggers cell growth suppression and cell cycle arrest at G2/M phase, related to FIG. 4. (FIG. 12A) The impact of Skp2 inhibitor on growth suppression in various cell lines. A panel of cancer cell lines were treated with various doses of Skp2 inhibitor (#25) for 4 days, and viable cell numbers were counted using hemocytometer. Growth inhibition (IC50) by compound #25 was derived from the cell counting using hemocytometer. (FIG. 12B) PC3 cells were treated with or without compound #25 for 2 days and cell cycle were determined by PI staining, followed by flow cytometry analysis. G1 phase=61.3±0.3%, S phase=15.6±0.6% and G2/M phase=20.3±0.3% in DMSO-treated PC3 cells while G1 phase=50.1±0.9%, S phase=13.3±0.8% and G2/M phase=24.5±0.3% in #25-treated PC3 cells. (FIG. 12C) Control- or Skp2-knockdown PC3 cells were treated with or without compound #25 for 2 days and cell cycle were determined by PI staining, followed by flow cytometry analysis. Two clones of Skp2 shRNA were used in this assay. G1 phase=53.1±0.8% and S phase=15.9±0.9% and G2/M phase=26.1±0.6% in control-knockdown PC3 cells, G1 phase=49.5±0.4%, S phase=13.6±0.7% and G2/M phase=29.1±0.5% in one clone of Skp2-silenced PC3 cells, G1 phase=54.5±1.6%, S phase=10.6±0.4% and G2/M phase=28.8±0.2% in another clone of Skp2-silenced PC3 cells. (FIG. 12D) WT or Skp2−/− MEFs were treated with or without compound #25 for 2 days, and cell cycle was determined by PI staining, followed by flow cytometry analysis. G1 phase=50.5±4.6%, S phase=9.1±0.6% and G2/M phase=27.8±0.9% in WT MEFs while G1 phase=27.7±1.3%, S phase=8.2±1.9% and G2/M phase=39.0±1.6% in Skp2−/− MEFs. Results are presented as mean values ±S.D. * indicates p<0.05, ** indicates p<0.01. Results from treatment groups were compared to vehicle-treated group.

[2] = target: T1, Skp2 SCF E3 ligase (Homo sapiens, UniProt Q13309); experiment: In vivo p27 ubiquitination assay in 293T cells; type: cell-based; settings: WT Skp2
T1 construct: expressed in transfected cells; host or cells: 293T
Procedure: (§1) In vivo and in vitro ubiquitination assays were performed as described with modification (Lin et al., 2009; Yang et al., 2009). For in vitro ubiquitination assay, recombinant GST-Akt proteins were expressed, purified and eluted from the bacterial lysates of BL21 competent cells. Flag-Skp2 SCF complex were expressed in 293T cells, immunoprecipitated by anti-Flag antibody, and eluted from Protein A/G beads using Flag peptides according to manufacturers' standard procedures. Purified GST-Akt and Flag-SCF proteins were incubated for 3 h at 37° C. in the absence and presence of Skp2 inhibitor. After incubation, protein mixtures were diluted in E1A Buffer and the supernatant fluid was precleared with Protein A/G beads for 1 h, and immunoprecipitated overnight with anti-Flag antibody, after which Protein A/G beads were added for an additional 1 h. Beads were washed 4 times with E1A Buffer. Proteins were eluted in SDS-sample buffer and subjected to immunoblotting analysis. For in vivo ubiquitination assay, 293T cells were transfected with the indicated plasmids and cultured in the absence or presence of Skp2 inhibitor for 48 h. 6 h before harvest, cells were cultured in the presence of MG132. After cell harvest, cells were lysed by the denatured buffer (6M guanidine-HCl, 0.1M Na2HPO4/NaH2PO4, 10 mM imidazole). […]

[3] = tested on: prostate CSCs; experiment: ALDH+ cancer stem cell population by FACS; type: cell-based
Procedure: FIGS. 6A-G. Skp2 inactivation diminishes cancer stem cell properties and heightens cancer cell sensitivity to chemotherapy. (FIG. 6A) Populations of ALDH^+ cells were determined by FACS analysis in PC3 cells treated with vehicle or compound #25. (FIG. 6B) Populations of ALDH^+ cells were determined by FACS analysis in PC3 cells with control or Skp2 knockdown. (FIG. 6C) Populations of ALDH^+ cells were determined by FACS analysis in PC3 cells with control or Skp2 knockdown treated with vehicle or compound #25. (FIG. 6D) Populations of ALDH^+ cells were determined by FACS analysis in PC3 cells with DMSO or LY294002. (FIG. 6E) Populations of ALDH^+ cells were determined by FACS analysis in LNCaP cells treated with DMSO, LY294002 or compound #25. (FIGS. 6F-G) Prostate sphere-formation assay in PC3 (FIG. 6F) and LNCaP (FIG. 6G) cells treated with DMSO, LY294002 or compound #25. Results are presented as mean values±S.D. ** indicates p<0.01.

[4] = tested on: β-TRCP; experiment: In vivo ubiquitination assay, β-TRCP substrates; type: cell-based; settings: in the presence of proteasome inhibitor
Procedure: as §1

[5] = tested on: LNCaP cells; experiment: Cell survival assay, LNCaP; type: cell-based, human
Procedure: For Skp2 inhibitor administration, 5-10×10^3 of cells with were seeded in 12 wells in triplicate, 24 h later, treated with compound #25 (refreshed every two days). Four days later, cells were harvested, stained with trypan blue, and viable cells were counted directly under the microscope using hemocytometer. For doxorubicin treatment, 8×10^3 of PC3 cells with were seeded in 12 wells in triplicate, 24 h later, treated with various dose of compound #25 in the presence or absence of 10 nM doxorubicin or 25 ng/ml cyclophosphamide for four and three days, respectively (refreshed every two days). After treatment, cells were harvested, stained with trypan blue, and viable cells were counted directly under the microscope using hemocytometer. Cellular senescence was determined by assessing SA-b-gal activity using senescence detection kit according to manufacturers' standard procedures (Calbiochem).

[6] = target: T2, FBW7 (Homo sapiens, UniProt Q969H0); experiment: In vivo ubiquitination assay, FBW7 substrates; type: cell-based; settings: in the presence of proteasome inhibitor
T2 construct: expressed in transfected cells; host or cells: 293T
Procedure: as §1

[7] = target: T3, Skp2-mediated Akt ubiquitination (Homo sapiens, UniProt Q13309); experiment: In vivo Akt ubiquitination assay; type: cell-based; settings: FIG. 1G
T3 construct: expressed in transfected cells; host or cells: 293T
Procedure: as §1

[8] = target: T4, WT Skp2 (Homo sapiens, UniProt Q13309); experiment: In vitro binding of compound to GST-Skp2 by LC-MS/MS; settings: preexisting Skp2-Skp1 complex
T4 construct: made in house
Procedure: To corroborate this notion, the in vitro binding assay was performed to compare the binding affinity of compound #25 to WT Skp2 and Skp2 mutants (Trp97Ala and Asp98Ala) using LC-MS/MS analysis. Of note, since the nature of recombinant Skp2 protein was unstable in the absence of Skp1 (Li et al., 2005), the GST-Skp2 WT, GST-Skp2 Trp97Ala and GST-Skp2Asp98Ala mutants subjected to LC-MS/MS analysis were co-expressed, purified and preformed complex with Skp1 (FIG. 10A).

T1 sequence (Q13309 whole entry): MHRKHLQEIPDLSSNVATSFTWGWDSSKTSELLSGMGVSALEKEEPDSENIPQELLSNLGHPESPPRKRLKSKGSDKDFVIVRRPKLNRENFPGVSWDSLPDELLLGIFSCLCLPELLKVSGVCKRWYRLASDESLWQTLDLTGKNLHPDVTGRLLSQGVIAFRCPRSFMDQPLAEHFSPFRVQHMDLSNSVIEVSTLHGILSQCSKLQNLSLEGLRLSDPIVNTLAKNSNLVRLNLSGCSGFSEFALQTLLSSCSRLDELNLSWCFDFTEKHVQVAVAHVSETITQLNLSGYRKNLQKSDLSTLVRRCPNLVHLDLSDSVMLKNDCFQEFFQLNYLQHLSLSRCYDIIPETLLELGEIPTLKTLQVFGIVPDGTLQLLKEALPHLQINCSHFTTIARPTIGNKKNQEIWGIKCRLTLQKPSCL
T2 sequence (Q969H0 whole entry, species assumed): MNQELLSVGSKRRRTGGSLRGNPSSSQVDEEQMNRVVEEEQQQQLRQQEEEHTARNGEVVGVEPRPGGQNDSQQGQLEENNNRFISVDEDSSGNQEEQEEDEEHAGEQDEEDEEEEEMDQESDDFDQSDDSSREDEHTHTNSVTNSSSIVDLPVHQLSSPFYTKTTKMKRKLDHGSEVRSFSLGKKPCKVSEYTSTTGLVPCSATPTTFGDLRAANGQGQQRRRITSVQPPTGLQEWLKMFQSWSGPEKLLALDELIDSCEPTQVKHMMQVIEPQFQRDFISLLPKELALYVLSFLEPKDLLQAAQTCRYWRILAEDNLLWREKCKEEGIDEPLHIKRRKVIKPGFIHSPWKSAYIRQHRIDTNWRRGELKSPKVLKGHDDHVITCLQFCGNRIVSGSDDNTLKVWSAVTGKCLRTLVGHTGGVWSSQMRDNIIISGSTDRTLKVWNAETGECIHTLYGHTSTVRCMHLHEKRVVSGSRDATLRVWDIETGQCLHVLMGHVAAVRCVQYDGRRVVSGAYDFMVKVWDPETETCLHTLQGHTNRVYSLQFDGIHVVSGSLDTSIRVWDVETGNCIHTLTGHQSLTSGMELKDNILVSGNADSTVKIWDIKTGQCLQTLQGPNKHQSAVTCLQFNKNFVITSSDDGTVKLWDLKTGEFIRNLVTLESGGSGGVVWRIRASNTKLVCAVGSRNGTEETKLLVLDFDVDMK
T3 sequence (Q13309 whole entry): as the sequence (Q13309 whole entry) above
T4 sequence (Q13309 whole entry): as above

**Q.** Which G1 phase [1] does the source give for `CCc1cc2c(=O)c(-c3nc4ccccc4s3)coc2c(CN2CCCCC2)c1O` [compound #25, 3-(1,3-benzothiazol-2-yl)-6-ethyl-7-hydroxy-8-(1-piperidinylmethyl)-4H-chromen-4-one] here?
**A.** The G1 phase was 50.1±0.9%.

**Q.** And the G2/M phase [1]?
**A.** The G2/M phase was 24.5±0.3%.

**Q.** And the S phase [1]?
**A.** Its S phase is 13.3±0.8%.

**Q.** And the “Skp2-mediated p27 ubiquitination” value [2]?
**A.** Its value is “inhibited Skp2-mediated p27 ubiquitination in a dose-dependent manner; also recorded: abrogated E3 ligase activity”.

**Q.** What about the “population of prostate CSCs” value [3] of the same compound?
**A.** Its value is “reduce the population of prostate CSCs in a dose dependent manner”.

**Q.** And the “population of prostate CSCs upon Skp2 silencing” value ([3]; Skp2 silencing)?
**A.** The value was “failed to do so”.

**Q.** What about the “β-TRCP-mediated ubiquitination (β-catenin, Snail, IκBα)” value [4] of the same compound?
**A.** Its value is “no appreciable effect”.

**Q.** What about the cell viability [5] of the same compound?
**A.** Its cell viability is “potent effects on cell viability”.

**Q.** What about the “FBW7-mediated ubiquitination (c-Jun, MCL-1)” value [6] of the same compound?
**A.** Its value is “no appreciable effect”.

**Q.** And the “Skp2-mediated Akt ubiquitination in cells” value [7]?
**A.** Its value is “inhibited Skp2-mediated Akt ubiquitination”.

**Q.** What about the “binding to WT Skp2” value [8] of the same compound?
**A.** Its value is “readily bound”.
